Results on 20 compounds are retold here after ChEMBL document CHEMBL3259687, “Synthesis and identification of chiral aminomethylpiperidine carboxamides as inhibitor of collagen induced platelet activation” (Eur J Med Chem, 2014).

The nature of series [1]: Antiplatelet activity in human platelet-rich plasma assessed as inhibition of collagen-induced platelet aggregation at 30 uM treated for 5 mins prior to collagen challenge for 5 mins by turbidimetric method. Format: functional.
Series [2] has as its system Mus musculus. The series can be described thus: Antithrombotic activity in mouse assessed as protection against collagen-epinephrine-induced pulmonary thromboembolism at 30 uM/kg, po administered 60 mins prior to thrombotic challenge. Format: functional.
The test system of series [3] is Mus musculus. As to the kind of experiment: Prolongation of bleeding time in mouse at 30 uM/kg, po administered as single dose by tail excision method. Format: ADME, organism-based. The note with it: in vivo.
Series [4] in a line: (§1) Antiplatelet activity in human platelet-rich plasma assessed as inhibition of collagen-induced platelet aggregation treated for 5 mins prior to collagen challenge for 5 mins by turbidimetric method. It counts as functional, cell-free. As to conditions: for IC50: Homo sapiens, Platelet, Plasma.
For series [5], the system named is Platelet. Described as §1. It counts as functional, cell-free.
The subject of series [6] is Platelet. The series can be described thus: Antiplatelet activity in human platelet-rich plasma assessed as inhibition of ADP-induced platelet aggregation treated for 5 mins prior to ADP challenge for 5 mins by turbidimetric method. It counts as functional, cell-free.
The test system of series [7] is Platelet. As to the kind of experiment: Antiplatelet activity in human platelet-rich plasma assessed as inhibition of TRAP-induced platelet aggregation treated for 5 mins prior to TRAP challenge for 5 mins by turbidimetric method. It counts as functional, cell-free.
Series [8] deals with Platelet. As to the kind of experiment: Antiplatelet activity in human platelet-rich plasma assessed as inhibition of ristocetin-induced platelet aggregation treated for 5 mins prior to ristocetin challenge for 5 mins by turbidimetric method. It counts as functional, cell-free.
Series [9] can be described thus: Antiplatelet activity in human platelet-rich plasma assessed as inhibition of arachidonic acid-induced platelet aggregation treated for 5 mins prior to arachidonic acid challenge for 5 mins by turbidimetric method. As to conditions: for IC50: Homo sapiens, Platelet, Plasma. Format: functional, cell-free.
The nature of series [10]: (§2) Antiplatelet activity in human platelet-rich plasma assessed as inhibition of U46619-induced platelet aggregation treated for 5 mins prior to U46619 challenge for 5 mins by turbidimetric method. It counts as functional, cell-free. The note with it: for IC50: Homo sapiens, Platelet, Plasma.
Series [11] deals with Platelet. The series is described as §2. Format: functional, cell-free.
The subject of series [12] is Mus musculus. As to the kind of experiment: Antithrombotic activity in mouse assessed as protection against collagen-epinephrine-induced pulmonary thromboembolism at 170 uM/kg, po administered 60 mins prior to thrombotic challenge. Format: functional.
Series [13] has as its system Mus musculus. As to the kind of experiment: Antithrombotic activity in mouse assessed as protection against collagen-epinephrine-induced pulmonary thromboembolism at 170 uM/kg, po administered 60 mins prior to thrombotic challenge measured for up to 5 hrs post-drug dose. It counts as functional, organism-based.
In series [14] the test system is Mus musculus. The series can be described thus: Prolongation of bleeding time in mouse at 170 uM/kg, po administered as single dose by tail excision method relative to control. It counts as ADME, organism-based. The note with it: in vivo.
Series [15] in a line: Antiplatelet activity in human platelet-rich plasma assessed as inhibition of collagen-induced platelet aggregation at 10 uM treated for 5 mins prior to collagen challenge for 5 mins by turbidimetric method. It counts as functional.
Series [16] concerns Mus musculus. As to the kind of experiment: Antithrombotic activity in mouse assessed as protection against collagen-epinephrine-induced pulmonary thromboembolism at 30 uM/kg, po administered 60 mins prior to thrombotic challenge measured for up to 12 hrs post-drug dose. It counts as functional, organism-based.
Series [17] deals with Mus musculus. As to the kind of experiment: Antithrombotic activity in mouse assessed as protection against collagen-epinephrine-induced pulmonary thromboembolism at 30 uM/kg, po administered 60 mins prior to thrombotic challenge measured for up to 18 hrs post-drug dose. Format: functional, organism-based.
Series [18] relates to Mus musculus. The series can be described thus: Antithrombotic activity in mouse assessed as protection against collagen-epinephrine-induced pulmonary thromboembolism at 30 uM/kg, po administered 60 mins prior to thrombotic challenge measured at >18 hrs post-drug dose. It counts as functional, organism-based.
The test system of series [19] is Mus musculus. As to the kind of experiment: Prolongation of bleeding time in mouse at 30 uM/kg, po administered as single dose by tail excision method relative to control. The note with it: in vivo. It counts as ADME, organism-based.
In series [20] the test system is Platelet. The series can be described thus: Antiplatelet activity in human platelet-rich plasma assessed as inhibition of convulxin-induced platelet aggregation treated for 5 mins prior to convulxin challenge for 5 mins by turbidimetric method. Format: functional, cell-free.
For series [21], the system named is Platelet. As to the kind of experiment: Antiplatelet activity in human platelet-rich plasma assessed as inhibition of CRP-XL-induced platelet aggregation up to 500 uM treated for 5 mins prior to CRP-XL challenge for 5 mins by turbidimetric method. It counts as functional, cell-free.
The test system of series [22] is Mus musculus. The series can be described thus: Antithrombotic activity in mouse assessed as protection against collagen-epinephrine-induced pulmonary thromboembolism at 30 uM/kg, po administered 60 mins prior to thrombotic challenge measured for more than 24 hrs post-drug dose. Format: functional, organism-based.

Structures are written as SMILES. Active and inactive are the calls of the source. The rule behind the calls is not given here.

With `Cc1ccc(S(=O)(=O)NCC2CCCN(C(=O)[C@@H]3CCC(=O)N3Cc3ccccc3)C2)cc1` (mixture of isomers), the inhibition at 30 µM in [1] came out at 72%. Also, the Activity in the series on Mus musculus [2] stood at 25%; with Mus musculus [3], 0%.

As to `O=C([C@@H]1CCC(=O)N1Cc1ccccc1)N1CCN(c2ccccc2Cl)CC1`, in [4], the “inhibition (INH)” value is recorded as 74%. Moreover, the Activity in the series with Mus musculus [2] was 40%.

On to `CC(C)(C)OC(=O)NCC1CCCN(C(=O)[C@@H]2CCC(=O)N2Cc2ccc(Br)cc2)C1` (mixture of isomers), for which the inhibition at 30 µM in [1] was 66.4%. Further, the results for the Activity in the series on Mus musculus [2] and in the series with Mus musculus [3] were 67% and 60%, respectively.

For the compound `Cc1ccc(CN2C(=O)SC[C@H]2C(=O)N2CCC[C@H](CNC(=O)OC(C)(C)C)C2)cc1`, the “inhibition (INH)” value was found to be 83% in [4], 8% in series [9] and 64% in series [10]. Moreover, the IC50 in [4] was 6 µM; in [9], more than 100 µM; in series [10], 10.2 µM. Further, the inhibition result in the series with Platelet [5] and in the series with Platelet [11] was “Dose-dependent effect” in each case. The inhibition entry in the series with Platelet [6], with Platelet [7] and with Platelet [8] was “inactive” each time. Moreover, the Activity in the series on Mus musculus [2] and in the series on Mus musculus [3] was 50% in each case.

With `CC(C)(C)OC(=O)NCC1CCCN(C(=O)[C@@H]2CCC(=O)N2Cc2ccccc2Cl)C1` (mixture of isomers), the inhibition at 30 µM in [1] was 15%. Besides, the Activity is recorded as 70% with Mus musculus [2] and 60% in the series on Mus musculus [3].

Take `Cc1ccc(CN2CSC[C@H]2C(=O)N2CCC[C@H](CNC(=O)OC(C)(C)C)C2)cc1`: the “inhibition (INH)” value is 87% in series [4], 93% in series [9] and 100% in series [10]. The IC50 in series [4] was found to be 3.3 µM; in series [9], 6 µM; in series [10], 2.7 µM. Further, the inhibition entry with Platelet [6], in the series on Platelet [7] and in the series on Platelet [8] was “inactive” in each case. Further, the Activity in the series on Mus musculus [2] turned out to be 60%; in the series on Mus musculus [3] it was 72%.

As to `CC(C)(C)OC(=O)NCC1CCCN(C(=O)[C@@H]2CCC(=O)N2C/C=C/c2ccccc2)C1` (mixture of isomers), the inhibition at 30 µM in [1] was 42%. Besides, the Activity with Mus musculus [2] was 30%; in the series with Mus musculus [3], 0%.

Take `CC(C)(C)OC(=O)NCC1CCN(C(=O)[C@@H]2CCC(=O)N2Cc2ccc(C#N)cc2)CC1`: the inhibition at 30 µM in series [1] was 34%. Besides, the Activity with Mus musculus [2] is reported as 40%; with Mus musculus [3], 0%.

Turning to `CC(=O)Oc1ccccc1C(=O)O` [ASPIRIN], the IC50 in [9] came out at 5 µM. Moreover, in the series with Mus musculus [12], the Activity came to 40%. Moreover, the result in the series on Mus musculus [13] was Active. Besides, in the series with Mus musculus [14], the “fold change (FC)” value was 2.2.

For `O=C([C@@H]1CCC(=O)N1Cc1ccccc1)N1CCN(c2ccccc2F)CC1`, in series [4], the “inhibition (INH)” value was found to be 57%. For the same compound, the Activity in the series on Mus musculus [2] was 50%.

With `Cc1ccc(CN2C(=O)CC[C@H]2C(=O)N2CCC[C@H](CNC(=O)OC(C)(C)C)C2)cc1`, the inhibition at 10 µM in series [15] turned out to be 30%. Also, the IC50 in [4] was 37 µM. Besides, the inhibition result in the series on Platelet [6], in the series on Platelet [7] and in the series with Platelet [8] was “inactive” throughout. Moreover, the Activity in the series with Mus musculus [2] was 50%. Besides, the result in the series on Mus musculus [16] was Active.

Regarding `Cc1ccc(CN2C(=O)CC[C@H]2C(=O)N2CCCC(CNC(=O)OC(C)(C)C)C2)cc1` (mixture of isomers), the inhibition at 30 µM in series [1] was 77.3%. Further, the IC50 in series [4] came to 16 µM. The inhibition entry in the series on Platelet [6], in the series on Platelet [7] and with Platelet [8] was “inactive” in each case. Also, the values for the Activity in the series on Mus musculus [2] and in the series on Mus musculus [3] were 60% and 50%, respectively. Further, the outcome with Mus musculus [17] was Active. For the same compound, the result in the series on Mus musculus [18] was inactive. The “fold change (FC)” value with Mus musculus [19] turned out to be 1.5.

For the compound `CC(C)(C)C(=O)NCC1CCCN(C(=O)[C@@H]2CCC(=O)N2Cc2ccccc2)C1` (mixture of isomers), the inhibition at 30 µM in series [1] came out at 2.4%. Moreover, the Activity was 50% in the series with Mus musculus [2] and 41% in the series on Mus musculus [3].

With `Cc1ccc(CN2C(=O)CC[C@H]2C(=O)N2CCC[C@@H](CNC(=O)OC(C)(C)C)C2)cc1`, the inhibition at 10 µM in series [15] is 49%. In series [4], the IC50 is 6.6 µM. Also, the inhibition result with Platelet [6], with Platelet [7], in the series on Platelet [8] and in the series with Platelet [20] was “inactive” in each case. Besides, the inhibition entry in the series on Platelet [21] is “Active”. The Activity with Mus musculus [2] is on record as 60%. The result in the series with Mus musculus [22] was Active.

For the compound `Cc1ccc(CN2CSC[C@H]2C(=O)N2CCC[C@@H](CNC(=O)OC(C)(C)C)C2)cc1`, the “inhibition (INH)” value was found to be 74% in series [4], 25% in [9] and 96% in series [10]. The results for the concentration for half-maximal inhibition (IC50) in [4], in series [9] and in [10] were 8 µM, more than 100 µM and 4.7 µM, respectively. The inhibition entry in the series on Platelet [5] and with Platelet [11] was “Dose-dependent effect” in each case. The inhibition entry with Platelet [6], in the series with Platelet [7] and with Platelet [8] was “inactive” throughout. For the same compound, the Activity in the series on Mus musculus [2] and with Mus musculus [3] was 50% each time.

In the case of `CC(C)(C)OC(=O)NCC1CCN(C(=O)[C@@H]2CCC(=O)N2Cc2c(Cl)cccc2Cl)CC1`, the inhibition at 30 µM in series [1] came to 80%. Besides, the Activity in the series with Mus musculus [2] is on record as 70%; in the series with Mus musculus [3], 50%.

As for `Cc1ccc(CN2C(=O)OC[C@H]2C(=O)N2CCC[C@@H](CNC(=O)OC(C)(C)C)C2)cc1`, the results for the Activity in the series on Mus musculus [2] and in the series on Mus musculus [3] were 30% and 54%, respectively.

Turning to `O=C(CNC(=O)OCc1ccccc1)NCC1CCCN(C(=O)[C@@H]2CCC(=O)N2Cc2ccccc2)C1` (mixture of isomers), the inhibition at 30 µM in series [1] stood at 12%. Besides, the Activity with Mus musculus [2] turned out to be 40%; with Mus musculus [3] it was 13%.

For the compound `O=C(NCC1CCN(C(=O)[C@@H]2CCC(=O)N2Cc2ccc(Br)cc2)CC1)OCc1ccccc1`, in [1], the inhibition at 30 µM is 11%. For the same compound, the Activity with Mus musculus [2] stood at 70%; in the series on Mus musculus [3], 25%.

Regarding `Cc1ccc(CN2C(=O)SC[C@H]2C(=O)N2CCC[C@@H](CNC(=O)OC(C)(C)C)C2)cc1`, the figures for the “inhibition (INH)” value in series [4], in series [9] and in [10] were 81%, 15% and 75%, respectively. The values for the IC50 in [4], in series [9] and in series [10] were 6.4 µM, more than 100 µM and 6.4 µM, respectively. The inhibition result in the series on Platelet [5] and in the series with Platelet [11] was “Dose-dependent effect” in each case. For the same compound, the inhibition entry in the series on Platelet [6], with Platelet [7] and in the series on Platelet [8] was “inactive” throughout. For the same compound, the Activity was found to be 40% in the series on Mus musculus [2] and 43% in the series on Mus musculus [3].

The term inhibition denotes the share of the control response that was lost under treatment. The term IC50 denotes the concentration that gives 50% inhibition.
